From patent publication US11547681B2, “N-acylethanolamide derivatives and uses thereof” (ELIEM THERAPEUTICS, INC., priority 2016, dated 2023)
Like-named read-outs stand apart in the source and are kept apart here.

Assay: Simulated intestinal fluid (SIF) stability in the presence of various enzymes
Assay type: in vitro ADME
Details: for % Remaining of Initial: n = 1
Protocol: (§1) Studies were carried out in simulated intestinal fluid in the presence of various enzymes. Simulated intestinal fluid was prepared by dissolving 6.8 g of monobasic potassium phosphate in 1.0 L of water. Aliquots of this solution were taken and the pH was adjusted to 6.8. Individual enzymes were then spiked into aliquots for each experiment. A DMSO stock was first prepared for the test article. Aliquots of the DMSO solution were dosed into 700 μL of matrix, which had been pre-warmed to 37° C., at a final test article concentration of 1 μM. […] Samples were stored at 4° C. until the end of the experiment. After the final time point was sampled, the plate was mixed and then centrifuged at 3,000 rpm for 10 minutes. Calibration standards were prepared in matched matrix. […] Analytical conditions are outlined in Appendix 8-1.
as §1, with “10-1.” for “8-1.”
Studies were carried out in simulated intestinal fluid in the presence of various enzymes. Simulated intestinal fluid was prepared by dissolving 6.8 g of monobasic potassium phosphate in 1.0 L of water. Aliquots of this solution were taken and the pH was adjusted to 6.8. Individual enzymes were then spiked into aliquots for each experiment. A DMSO stock was first prepared for test article. Aliquots of the DMSO solution were dosed into 700 μL of matrix, which had been pre-warmed to 37° C., at a final test article concentration of 1 μM. […] Samples were stored at 4° C. until the end of experiment. After final time point was sampled, the plate was mixed and then centrifuged at 3,000 rpm for 10 minutes. Calibration standards were prepared in matched matrix. […] Analytical conditions are outlined in Appendix 13-1.
as §1, with “17-1.” for “8-1.”

[1] = SIF + Carboxypeptidase A, 0 min, 1 μM
[2] = SIF + Carboxypeptidase A, 15 min, 1 μM
[3] = SIF + Carboxypeptidase A, 30 min, 1 μM
[4] = SIF + Carboxypeptidase A, 60 min, 1 μM
[5] = SIF + Carboxypeptidase A, 120 min, 1 μM
[6] = SIF + Carboxypeptidase B, 0 min, 1 μM
[7] = SIF + Carboxypeptidase B, 15 min, 1 μM
[8] = SIF + Carboxypeptidase B, 30 min, 1 μM
[9] = SIF + Carboxypeptidase B, 60 min, 1 μM
[10] = SIF + Carboxypeptidase B, 120 min, 1 μM
[11] = SIF + Chymotrypsin, 0 min, 1 μM
[12] = SIF + Chymotrypsin, 15 min, 1 μM
[13] = SIF + Chymotrypsin, 30 min, 1 μM
[14] = SIF + Chymotrypsin, 60 min, 1 μM
[15] = SIF + Chymotrypsin, 120 min, 1 μM
[16] = SIF + Pancreatin, 120 min, 1 μM
[17] = simulated intestinal fluid with carboxypeptidase A, pH 6.8, SIF + Carboxypeptidase A, 1 μM, read-out: Half-life
[18] = simulated intestinal fluid with carboxypeptidase B, pH 6.8, SIF + Carboxypeptidase B, 1 μM, read-out: Half-life
[19] = simulated intestinal fluid with chymotrypsin, pH 6.8, SIF + Chymotrypsin, 1 μM, read-out: Half-life
[20] = simulated intestinal fluid with elastase, pH 6.8, SIF + Elastase, 1 μM, read-out: Half-life
[21] = simulated intestinal fluid with pancreatin, pH 6.8, SIF + Pancreatin, 1 μM, read-out: Half-life
[22] = simulated intestinal fluid with trypsin, pH 6.8, SIF + Trypsin, 1 μM, read-out: Half-life

## CCCCCCCCCCCCCCCC(=O)NCCOC(=O)CCC(=O)OC[C@H]1O[C@@](CO)(O[C@H]2O[C@H](CO)[C@@H](O)[C@H](O)[C@H]2O)[C@@H](O)[C@@H]1O [Compound I-7]
[1]
  % Remaining of Initial (n = 1): 100%
[2]
  % Remaining of Initial (n = 1): 30%
[3]
  % Remaining of Initial (n = 1): 10%
[4]
  % Remaining of Initial (n = 1): 4.1%
[5]
  % Remaining of Initial (n = 1): 3.9%
[6]
  % Remaining of Initial (n = 1): 100%
[7]
  % Remaining of Initial (n = 1): 33%
[8]
  % Remaining of Initial (n = 1): 14%
[9]
  % Remaining of Initial (n = 1): 5.7%
[10]
  % Remaining of Initial (n = 1): 2.2%
[11]
  % Remaining of Initial (n = 1): 100%
[12]
  % Remaining of Initial (n = 1): 42%
[13]
  % Remaining of Initial (n = 1): 23%
[14]
  % Remaining of Initial (n = 1): 13%
[15]
  % Remaining of Initial (n = 1): 15%
SIF + Elastase, 0 min, 1 μM
  % Remaining of Initial (n = 1): 100%
SIF + Elastase, 15 min, 1 μM
  % Remaining of Initial (n = 1): 44%
SIF + Elastase, 30 min, 1 μM
  % Remaining of Initial (n = 1): 14%
SIF + Elastase, 60 min, 1 μM
  % Remaining of Initial (n = 1): 3.8%
SIF + Elastase, 120 min, 1 μM
  % Remaining of Initial (n = 1): 3.5%
SIF + Pancreatin, 0 min, 1 μM
  % Remaining of Initial (n = 1): 100%
SIF + Pancreatin, 15 min, 1 μM
  % Remaining of Initial (n = 1): 40%
SIF + Pancreatin, 30 min, 1 μM
  % Remaining of Initial (n = 1): 19%
SIF + Pancreatin, 60 min, 1 μM
  % Remaining of Initial (n = 1): 6.5%
[16]
  % Remaining of Initial (n = 1): 2.7%
SIF + Trypsin, 0 min, 1 μM
  % Remaining of Initial (n = 1): 100%
SIF + Trypsin, 15 min, 1 μM
  % Remaining of Initial (n = 1): 66%
SIF + Trypsin, 30 min, 1 μM
  % Remaining of Initial (n = 1): 44%
SIF + Trypsin, 60 min, 1 μM
  % Remaining of Initial (n = 1): 38%
SIF + Trypsin, 120 min, 1 μM
  % Remaining of Initial (n = 1): 33%
[17]
  half-life at 1 μM: 8.8 min
[18]
  half-life at 1 μM: 10 min
[19]
  half-life at 1 μM: 14 min
[20]
  half-life at 1 μM: 12 min
[21]
  half-life at 1 μM: 12 min
[22]
  half-life at 1 μM: 50 min

## CCCCCCCCCCCCCCCC(=O)NCCOC(=O)CCC(=O)OC(CO)CO [Compound I-8]
[1]
  % Remaining of Initial: 100%
[2]
  % Remaining of Initial: 33%
[3]
  % Remaining of Initial: 8.7%
[4]
  % Remaining of Initial: <1.0%
[5]
  % Remaining of Initial: <1.0%
[6]
  % Remaining of Initial: 100%
[7]
  % Remaining of Initial: 30%
[8]
  % Remaining of Initial: 7.1%
[9]
  % Remaining of Initial: <1.0%
[10]
  % Remaining of Initial: <1.0%
[11]
  % Remaining of Initial: 100%
[12]
  % Remaining of Initial: 36%
[13]
  % Remaining of Initial: 8.7%
[14]
  % Remaining of Initial: <1.0%
[15]
  % Remaining of Initial: <1.0%
SIF + Elastase, 0 min, 1 μM
  % Remaining of Initial: 100%
SIF + Elastase, 15 min, 1 μM
  % Remaining of Initial: 38%
SIF + Elastase, 30 min, 1 μM
  % Remaining of Initial: 17%
SIF + Elastase, 60 min, 1 μM
  % Remaining of Initial: 16%
SIF + Elastase, 120 min, 1 μM
  % Remaining of Initial: 17%
SIF + Trypsin, 0 min, 1 μM
  % Remaining of Initial: 100%
SIF + Trypsin, 15 min, 1 μM
  % Remaining of Initial: 52%
SIF + Trypsin, 30 min, 1 μM
  % Remaining of Initial: 31%
SIF + Trypsin, 60 min, 1 μM
  % Remaining of Initial: 28%
SIF + Trypsin, 120 min, 1 μM
  % Remaining of Initial: 25%
Simulated intestinal fluid with carboxypeptidase A, pH 6.8, SIF + Carboxypeptidase A, read-out: Half-life
  half-life at 1 μM: < 15 min
Simulated intestinal fluid with carboxypeptidase A, pH 6.8, SIF + Carboxypeptidase A, read-out: Half-life, calculated value in parentheses
  half-life at 1 µM: 9.2 min
Simulated intestinal fluid with carboxypeptidase B, pH 6.8, SIF + Carboxypeptidase B, read-out: Half-life
  half-life at 1 µM: < 15 min
Simulated intestinal fluid with carboxypeptidase B, pH 6.8, SIF + Carboxypeptidase B, read-out: Half-life, calculated value in parentheses
  half-life at 1 µM: 8.5 min
Simulated intestinal fluid with chymotrypsin, pH 6.8, SIF + Chymotrypsin, read-out: Half-life
  half-life at 1 μM: < 15 min
Simulated intestinal fluid with chymotrypsin, pH 6.8, SIF + Chymotrypsin, read-out: Half-life, calculated value in parentheses
  half-life at 1 μM: 9.6 min
Simulated intestinal fluid with elastase, pH 6.8, SIF + Elastase, read-out: Half-life
  half-life at 1 μM: < 15 min
Simulated intestinal fluid with elastase, pH 6.8, SIF + Elastase, read-out: Half-life, calculated value in parentheses
  half-life at 1 µM: 12 min
Simulated intestinal fluid with trypsin, pH 6.8, SIF + Trypsin, read-out: Half-life
  half-life at 1 μM: 25 min

## CCCCCCCCCCCCCCCC(=O)NCCOC(=O)CCC(=O)OCC(O)CO (stereo not shown) [Compound I-9]
[1]
  % Remaining of Initial (n = 1): 100%
[2]
  % Remaining of Initial (n = 1): 43%
[3]
  % Remaining of Initial (n = 1): 15%
[4]
  % Remaining of Initial (n = 1): 10%
[5]
  % Remaining of Initial (n = 1): 5.5%
[6]
  % Remaining of Initial (n = 1): 100%
[7]
  % Remaining of Initial (n = 1): 44%
[8]
  % Remaining of Initial (n = 1): 14%
[9]
  % Remaining of Initial (n = 1): 6.1%
[10]
  % Remaining of Initial (n = 1): 4.7%
[11]
  % Remaining of Initial (n = 1): 100%
[12]
  % Remaining of Initial (n = 1): 45%
[13]
  % Remaining of Initial (n = 1): 24%
[14]
  % Remaining of Initial (n = 1): 11%
[15]
  % Remaining of Initial (n = 1): 7.2%
SIF + Elastase, 0 min, 1 μM
  % Remaining of Initial (n = 1): 100%
SIF + Elastase, 15 min, 1 μM
  % Remaining of Initial (n = 1): 49%
SIF + Elastase, 30 min, 1 μM
  % Remaining of Initial (n = 1): 22%
SIF + Elastase, 60 min, 1 μM
  % Remaining of Initial (n = 1): 10%
SIF + Elastase, 120 min, 1 μM
  % Remaining of Initial (n = 1): 6.3%
SIF + Pancreatin, 0 min, 1 μM
  % Remaining of Initial (n = 1): 100%
SIF + Pancreatin, 15 min, 1 μM
  % Remaining of Initial (n = 1): 35%
SIF + Pancreatin, 30 min, 1 μM
  % Remaining of Initial (n = 1): 34%
SIF + Pancreatin, 60 min, 1 μM
  % Remaining of Initial (n = 1): 20%
[16]
  % Remaining of Initial (n = 1): 13%
SIF + Trypsin, 0 min, 1 μM
  % Remaining of Initial (n = 1): 100%
SIF + Trypsin, 15 min, 1 μM
  % Remaining of Initial (n = 1): 67%
SIF + Trypsin, 30 min, 1 μM
  % Remaining of Initial (n = 1): 49%
SIF + Trypsin, 60 min, 1 μM
  % Remaining of Initial (n = 1): 22%
SIF + Trypsin, 120 min, 1 μM
  % Remaining of Initial (n = 1): 12%
[17]
  half-life at 1 μM: 12 min
[18]
  half-life at 1 μM: 12 min
[19]
  half-life at 1 μM: 14 min
[20]
  half-life at 1 μM: 15 min
[21]
  half-life at 1 μM: 17 min
[22]
  half-life at 1 μM: 29 min
